Measured values as given in BindingDB's records for patent US20250313563 (The Broad Institute, 2025).
Values joined by “and” are separate entries in the source; they are usually repeats but may differ in a detail not shown here. Equal values may be shown once.

Tests used:
[1] = biological target: Glycogen synthase kinase-3 alpha (Homo sapiens, UniProt P49840); assay: TR-FRET Assay
Procedure, shortened: (§1)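 Signal is measured as TR-FRET between a terbium anti-phospho-Ser641 antibody and streptavidin-d2, added after an EDTA quench. Compounds are preincubated 30 min in assay buffer.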

[2] = biological target: Glycogen synthase kinase-3 beta (Homo sapiens, UniProt P49841); assay: TR-FRET Assay
Chain of Glycogen synthase kinase-3 beta (P49841 whole entry): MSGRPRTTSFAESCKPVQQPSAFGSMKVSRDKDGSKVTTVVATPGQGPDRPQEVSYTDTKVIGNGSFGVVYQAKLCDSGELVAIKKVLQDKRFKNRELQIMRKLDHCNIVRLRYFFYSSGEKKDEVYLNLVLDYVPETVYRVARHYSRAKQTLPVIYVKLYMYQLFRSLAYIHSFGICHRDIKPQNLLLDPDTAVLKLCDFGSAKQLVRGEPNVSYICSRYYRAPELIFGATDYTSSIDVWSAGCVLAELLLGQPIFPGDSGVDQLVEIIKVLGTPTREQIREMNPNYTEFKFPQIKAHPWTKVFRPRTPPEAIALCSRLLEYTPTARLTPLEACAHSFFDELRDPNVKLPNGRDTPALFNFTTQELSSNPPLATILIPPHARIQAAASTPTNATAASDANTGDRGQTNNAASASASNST
Procedure, shortened: as §1

Chain of Glycogen synthase kinase-3 alpha (P49840 whole entry): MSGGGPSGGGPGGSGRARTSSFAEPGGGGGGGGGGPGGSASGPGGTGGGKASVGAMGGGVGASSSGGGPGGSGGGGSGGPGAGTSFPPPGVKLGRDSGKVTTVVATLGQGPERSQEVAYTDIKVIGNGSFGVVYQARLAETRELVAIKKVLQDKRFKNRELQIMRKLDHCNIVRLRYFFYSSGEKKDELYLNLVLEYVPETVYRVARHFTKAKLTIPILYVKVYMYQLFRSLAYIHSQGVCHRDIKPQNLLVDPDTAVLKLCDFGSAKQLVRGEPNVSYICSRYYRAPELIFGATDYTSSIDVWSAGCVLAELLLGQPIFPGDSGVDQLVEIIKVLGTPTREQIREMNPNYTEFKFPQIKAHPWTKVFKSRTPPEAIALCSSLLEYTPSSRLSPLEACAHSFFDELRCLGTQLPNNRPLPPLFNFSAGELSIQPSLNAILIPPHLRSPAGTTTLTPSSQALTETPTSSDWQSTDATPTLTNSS

| Structure (SMILES) | IC50 [1] | IC50 [2] |
| --- | --- | --- |
| CC[C@]1(c2cccc(-c3ccnc4ccc(C)cc34)c2)C2=CN=NC2NC2=C1C(=O)NC(C)(C)C2 (some centres not stated) [US20250313563, Compound 948658] | > 5000 nM | > 5000 nM |
| CC[C@]1(c2cccc(-c3ccnc(C)c3)c2)C2=CN=NC2NC2=C1C(=O)NC1(CCCC1)C2 (some centres not stated) [US20250313563, Compound 948660] | < 100 nM | < 100 nM |
| CC[C@]1(c2cccc(C3=C4CC=C(OC)C=C4N=CC3)c2)C2=CN=NC2NC2=C1C(=O)NC(C)(C)C2 (some centres not stated) [US20250313563, Compound 948661] | < 100 nM | 100 to 1000 nM |
| CC[C@]1(c2cccc(-c3ccncc3C)c2)C2=CN=NC2NC2=C1C(=O)N[C@@]1(CCOC1)C2 (some centres not stated) [US20250313563, Compound 948662] | 1000 to 5000 nM | > 5000 nM |
| CC[C@]1(c2cccc(-c3ccnc4cc(F)c(F)cc34)c2)C2=CN=NC2NC2=C1C(=O)NC(C)(C)C2 (some centres not stated) [US20250313563, Compound 948664] | 1000 to 5000 nM | > 5000 nM |
| CCC1(c2cccc(-c3cc(C)ncc3F)c2)C2=C(CC(C)(C)NC2=O)NC2N=NC(C)=C21 (configuration not stated) [US20250313563, Compound 948761] | < 100 nM | < 100 nM |
| CCC1(c2cccc(-c3cc(C)ncc3F)c2)C2=C(CC(C)(C)NC2=O)NC2N=NC(C(F)(F)F)=C21 (configuration not stated) [US20250313563, Compound 948762] | < 100 nM | < 100 nM |
| CCC1(c2cccc(OC)c2)C2=C(CC(C)(C)NC2=O)NC2N=NC(C)=C21 (configuration not stated) [US20250313563, Compound 948763] | < 100 nM | 100 to 1000 nM |
| CCC1(c2cccc(Oc3ncccn3)c2)C2=CN=NC2NC2=C1C(=O)NC(C)(C)C2 (configuration not stated) [US20250313563, Compound 948764] | < 100 nM | 100 to 1000 nM |
| CCC1(c2cccc(-c3cc(C)nnc3C)c2)C2=C(CC(C)(C)NC2=O)NC2N=NC(C)=C21 (configuration not stated) [US20250313563, Compound 948765] | < 100 nM | < 100 nM |
| CCC1(c2cccc(-c3cnn(C)c3)c2)C2=C(CC(C)(C)NC2=O)NC2N=NC(Cl)=C21 (configuration not stated) [US20250313563, Compound 948767] | < 100 nM | < 100 nM |
| CCC1(c2cccc(-c3cn(C)nc3C)c2)C2=C(CC(C)(C)NC2=O)NC2N=NC(Cl)=C21 (configuration not stated) [US20250313563, Compound 948768] | < 100 nM | < 100 nM |
| CC[C@]1(c2cccc(-c3ccnc4c3CCC4)c2)C2=C(CC(C)(C)NC2=O)NC2N=NC(C(F)(F)F)=C21 (some centres not stated) [US20250313563, Compound 948769] | 100 to 1000 nM | 100 to 1000 nM |
| CC[C@]1(c2cccc(-c3ccncc3F)c2)C2=C(CC(C)(C)NC2=O)NC2N=NC(C(F)(F)F)=C21 (some centres not stated) [US20250313563, Compound 948770] | 100 to 1000 nM | 100 to 1000 nM |
| CC[C@]1(c2cccc(S(=O)(=O)C3CC3)c2)C2=C(CC(C)(C)NC2=O)NC2=C1C(C(F)(F)F)N=N2 (some centres not stated) [US20250313563, Compound 948771] | < 100 nM | < 100 nM and 100 to 1000 nM |
| CC[C@]1(c2cccc(-c3cnn4c3CCCC4)c2)C2=C(CC(C)(C)NC2=O)NC2N=NC(C(F)(F)F)=C21 (some centres not stated) [US20250313563, Compound 948772] | 100 to 1000 nM | 100 to 1000 nM |
| CC[C@@]1(c2cccc(-c3ccnc(C)c3)c2)C2=C(CC(C)(C)NC2=O)NC2N=NC(C(F)(F)F)=C21 (some centres not stated) [US20250313563, Compound 948774] | < 100 nM | < 100 nM |
| CC[C@@]1(c2cccc(-c3cnn4c3CCCC4)c2)C2=C(CC(C)(C)NC2=O)NC2N=NC(C(F)(F)F)=C21 (some centres not stated) [US20250313563, Compound 948775] | < 100 nM | < 100 nM and 100 to 1000 nM |
| CC[C@@]1(c2cccc(S(=O)(=O)C3CC3)c2)C2=C(CC(C)(C)NC2=O)NC2N=NC(C(F)(F)F)=C21 (some centres not stated) [US20250313563, Compound 948776] | 100 to 1000 nM | 100 to 1000 nM |
| CC[C@@]1(c2cccc(-c3ccncc3F)c2)C2=C(CC(C)(C)NC2=O)NC2N=NC(C(F)(F)F)=C21 (some centres not stated) [US20250313563, Compound 948777] | < 100 nM | < 100 nM |
| CC[C@@]1(c2cccc(-c3ccnc4c3CCC4)c2)C2=C(CC(C)(C)NC2=O)NC2N=NC(C(F)(F)F)=C21 (some centres not stated) [US20250313563, Compound 948778] | < 100 nM and 100 to 1000 nM | < 100 nM and 1000 to 5000 nM |
| CCC1(c2cccc(C3CN(C(C)=O)C3)c2)C2=CN=NC2NC2=C1C(=O)CC(C)(C)C2 (configuration not stated) [US20250313563, Compound 948779] | 1000 to 5000 nM | > 5000 nM |
| CCC1(c2cccc(-c3ccnc(C)c3OC)c2)C2=CN=NC2NC2=C1C(=O)NC(C)(C)C2 (configuration not stated) [US20250313563, Compound 948794] | < 100 nM | 100 to 1000 nM |
| CC[C@@]1(c2cccc(-c3c(C)cncc3C)c2)C2=CN=NC2NC2=C1C(=O)NC(C)(C)C2 (some centres not stated) [US20250313563, Compound 948812] | < 100 nM and 100 to 1000 nM | < 100 nM and 1000 to 5000 nM |
| CC[C@]1(c2cccc(C3=C4CC=CC(F)=C4N=CC3)c2)C2=CN=NC2NC2=C1C(=O)NC(C)(C)C2 (some centres not stated) [US20250313563, Compound 948813] | 1000 to 5000 nM | > 5000 nM |
| CC[C@]1(c2cccc(-c3cnn(C)c3C#N)c2)C2=CN=NC2NC2=C1C(=O)NC(C)(C)C2 (some centres not stated) [US20250313563, Compound 948814] | > 5000 nM | > 5000 nM |

| Structure (SMILES) | IC50 [1] | IC50 [2] |
| --- | --- | --- |
| CC[C@@]1(c2cccc(-c3cnn(C)c3C(F)(F)F)c2)C2=CN=NC2NC2=C1C(=O)NC(C)(C)C2 (some centres not stated) [US20250313563, Compound 948815] | < 100 nM and 100 to 1000 nM | 100 to 1000 nM and > 5000 nM |
| CC[C@]1(c2cccc(-c3cnn(C(F)F)c3)c2)C2=CN=NC2NC2=C1C(=O)NC(C)(C)C2 (some centres not stated) [US20250313563, Compound 948816] | > 5000 nM | > 5000 nM |
| CC[C@]1(c2cccc(-c3ccnc4c3cnn4C)c2)C2=CN=NC2NC2=C1C(=O)NC(C)(C)C2 (some centres not stated) [US20250313563, Compound 948817] | > 5000 nM | > 5000 nM |
| CC[C@]1(c2cccc(-c3ccnc4cnccc34)c2)C2=CN=NC2NC2=C1C(=O)NC(C)(C)C2 (some centres not stated) [US20250313563, Compound 948819] | 1000 to 5000 nM | > 5000 nM |
| CC[C@]1(c2cccc(-c3c(Cl)cncc3Cl)c2)C2=CN=NC2NC2=C1C(=O)NC(C)(C)C2 (some centres not stated) [US20250313563, Compound 948824] | 1000 to 5000 nM | > 5000 nM |
| CC[C@@]1(c2cccc(-c3ccnc(N4CCOCC4)c3)c2)C2=CN=NC2NC2=C1C(=O)NC(C)(C)C2 (some centres not stated) [US20250313563, Compound 948825] | 100 to 1000 nM | 1000 to 5000 nM |
| CC[C@@]1(c2cccc(-c3ccnc4c(F)cccc34)c2)C2=CN=NC2NC2=C1C(=O)NC(C)(C)C2 (some centres not stated) [US20250313563, Compound 948828] | < 100 nM and 100 to 1000 nM | 100 to 1000 nM and 1000 to 5000 nM |
| CC[C@]1(c2cccc(-c3c(C)cncc3C)c2)C2=CN=NC2NC2=C1C(=O)NC(C)(C)C2 (some centres not stated) [US20250313563, Compound 948829] | > 5000 nM | > 5000 nM |
| CCC1(c2cccc(-c3ccnc(C)c3)c2)C2=C(CC(C)(C)NC2=O)NC2N=NC(Cl)=C21 (configuration not stated) [US20250313563, Compound 948998] | < 100 nM and 100 to 1000 nM | < 100 nM and 1000 to 5000 nM |
| CCC1(c2cccc(-c3ccncc3F)c2)C2=C(CC(C)(C)NC2=O)NC2N=NC(F)=C21 (configuration not stated) [US20250313563, Compound 948999] | < 100 nM | 100 to 1000 nM |
| CC[C@]1(c2cccc(N3CCOCC3)c2)C2=C(CC(C)(C)NC2=O)NC2N=NC(C(F)(F)F)=C21 (some centres not stated) [US20250313563, Compound 949000] | 100 to 1000 nM | 100 to 1000 nM |
| CC[C@]1(c2cccc(-c3ccnc(C)c3)c2)C2=C(CC(C)(C)NC2=O)NC2N=NC(F)=C21 (some centres not stated) [US20250313563, Compound 949001] | 100 to 1000 nM | 100 to 1000 nM |
| CC[C@]1(c2cccc(-c3cnn(C)c3)c2)C2=C(CC(C)(C)NC2=O)NC2N=NC(F)=C21 (some centres not stated) [US20250313563, Compound 949002] | 1000 to 5000 nM | > 5000 nM |
| CC[C@]1(c2cccc(-c3cncn3C)c2)C2=C(CC(C)(C)NC2=O)NC2N=NC(C(F)(F)F)=C21 (some centres not stated) [US20250313563, Compound 949003] | 100 to 1000 nM | 100 to 1000 nM |
| CC[C@@]1(c2cccc(C(F)F)c2)C2=CN=NC2NC2=C1C(=O)NC(C)(C)C2 (some centres not stated) [US20250313563, Compound 949006] | < 100 nM and 100 to 1000 nM | 100 to 1000 nM and > 5000 nM |
| CC[C@]1(c2cccc(C(F)F)c2)C2=CN=NC2NC2=C1C(=O)NC(C)(C)C2 (some centres not stated) [US20250313563, Compound 949007] | 1000 to 5000 nM | > 5000 nM |
| CC[C@@]1(c2cccc(-c3ccnc(C)c3)c2)C2=C(CC(C)(C)NC2=O)NC2N=NC(F)=C21 (some centres not stated) [US20250313563, Compound 949012] | < 100 nM | 100 to 1000 nM |
| CC[C@@]1(c2cccc(N3CCOCC3)c2)C2=C(CC(C)(C)NC2=O)NC2N=NC(C(F)(F)F)=C21 (some centres not stated) [US20250313563, Compound 949013] | < 100 nM | < 100 nM |
| CC[C@@]1(c2cccc(C(F)(F)F)c2)C2=CN=NC2NC2=C1C(=O)N(c1cccc(C)c1)CC2 (some centres not stated) [US20250313563, Compound 949041] | 1000 to 5000 nM | > 5000 nM |
| CCC1(c2cccc(C3CCCC3)c2)C2=CN=NC2NC2=C1C(=O)CC(C)(C)C2 (configuration not stated) [US20250313563, Compound 949082] | < 100 nM | < 100 nM |
| CCc1cccc(C2(CC)C3=C(N=NC3)NC3=C2C(=O)CC(C)(C)C3)c1 (configuration not stated) [US20250313563, Compound 949083] | < 100 nM | 100 to 1000 nM |
| CC[C@]1(c2cccc(C(F)(F)C(F)(F)F)c2)C2=CN=NC2NC2=C1C(=O)CC(C)(C)C2 (some centres not stated) [US20250313563, Compound 949103] | < 100 nM and 100 to 1000 nM | < 100 nM and 100 to 1000 nM |
| CC[C@]1(c2cccc(OCC(F)F)c2)C2=CN=NC2NC2=C1C(=O)CC(C)(C)C2 (some centres not stated) [US20250313563, Compound 949104] | < 100 nM | < 100 nM |
| CC[C@@]1(c2cccc(-c3cnn(CCOC)c3)c2)C2=CN=NC2NC2=C1C(=O)NC(C)(C)C2 (some centres not stated) [US20250313563, Compound 949105] | < 100 nM | 100 to 1000 nM |
| CC[C@]1(c2cccc(-c3cn(C)nc3C(C)C)c2)C2=CN=NC2NC2=C1C(=O)NC(C)(C)C2 (some centres not stated) [US20250313563, Compound 949106] | 1000 to 5000 nM | > 5000 nM |
